What all share (test): relative viability (nuclei count vs DMSO), 5 days (fraction); higher = more cells survive
Compound in the test “Dabrafenib + Palbociclib”: CC(C)(C)c1nc(-c2cccc(NS(=O)(=O)c3c(F)cccc3F)c2F)c(-c2ccnc(N)n2)s1 [Dabrafenib] + CC(=O)c1c(C)c2cnc(Nc3ccc(N4CCNCC4)cn3)nc2n(C2CCCC2)c1=O [Palbociclib] (partner 0.5 µM)
The gist of the method:
(§1)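 The day after seeding in 1536-well plates, lung cancer cell lines were treated by pin tool with a single drug, or with a fixed anchor-drug dose together with five library-drug doses (not always all listed) in √10 steps. After 5 days, a combined fix-and-stain solution (final 0.05% Triton X-100, 1% formaldehyde, 1 ug/ml Hoechst) was added. Nuclei counted on 4× images gave relative viability as treated counts over vehicle counts, reported as the median of duplicate plates.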

Compound in the test “VX-702 + Olaparib”: NC(=O)c1ccc(N(C(N)=O)c2c(F)cccc2F)nc1-c1ccc(F)cc1F [VX-702] + O=C(c1cc(Cc2n[nH]c(=O)c3ccccc23)ccc1F)N1CCN(C(=O)C2CC2)CC1 [Olaparib] (partner 8 µM)
The gist of the method: as §1

Compound in the test “VX-702 + Palbociclib”: NC(=O)c1ccc(N(C(N)=O)c2c(F)cccc2F)nc1-c1ccc(F)cc1F [VX-702] + CC(=O)c1c(C)c2cnc(Nc3ccc(N4CCNCC4)cn3)nc2n(C2CCCC2)c1=O [Palbociclib] (partner 0.5 µM)
Put shortly: as §1

Compound in the test “VX-702 + Pictilisib”: NC(=O)c1ccc(N(C(N)=O)c2c(F)cccc2F)nc1-c1ccc(F)cc1F [VX-702] + CS(=O)(=O)N1CCN(Cc2cc3nc(-c4cccc5[nH]ncc45)nc(N4CCOCC4)c3s2)CC1 [Pictilisib] (partner 1 µM)
Put shortly: as §1

Five cell lines from the supplement of paper PMC10307832 can be followed below.

Take LCLC-97TM1: the relative viability was found to be 0.206 in the test with Dabrafenib + Palbociclib (first compound 0.009487 µM); 0.266 with Dabrafenib + Palbociclib (first compound 0.03 µM); 0.184 with Dabrafenib + Palbociclib (first compound 0.09487 µM); 0.198 with Dabrafenib + Palbociclib (first compound 0.3 µM); 0.428 with VX-702 + Olaparib (first compound 0.02 µM); 0.307 with VX-702 + Olaparib (first compound 0.2 µM). In addition, the relative viability with VX-702 + Olaparib (first compound 0.6325 µM) turned out to be 0.502; in the test with VX-702 + Olaparib (first compound 2 µM), 0.69; with VX-702 + Palbociclib (first compound 0.02 µM), 0.192; with VX-702 + Palbociclib (first compound 0.2 µM), 0.23; with VX-702 + Palbociclib (first compound 0.6325 µM), 0.195; with VX-702 + Palbociclib (first compound 2 µM), 0.3. Besides, the relative viability in the test with VX-702 + Pictilisib (first compound 0.02 µM) was found to be 0.148; with VX-702 + Pictilisib (first compound 0.2 µM), 0.21; with VX-702 + Pictilisib (first compound 0.6325 µM), 0.121; with VX-702 + Pictilisib (first compound 2 µM), 0.192.

With NCI-H460, the relative viability with Dabrafenib + Palbociclib (first compound 0.003 µM) was found to be 0.229; with Dabrafenib + Palbociclib (first compound 0.009487 µM), 0.1; with Dabrafenib + Palbociclib (first compound 0.03 µM), 0.148; with Dabrafenib + Palbociclib (first compound 0.09487 µM) it was 0.226; in the test with Dabrafenib + Palbociclib (first compound 0.3 µM) it was 0.111; with VX-702 + Olaparib (first compound 0.02 µM), 0.428. Moreover, the relative viability in the test with VX-702 + Olaparib (first compound 0.2 µM) was 0.438; with VX-702 + Olaparib (first compound 0.6325 µM), 0.548; with VX-702 + Olaparib (first compound 2 µM) it was 0.26; in the test with VX-702 + Palbociclib (first compound 0.02 µM), 0.187; with VX-702 + Palbociclib (first compound 0.2 µM), 0.156; with VX-702 + Palbociclib (first compound 0.6325 µM), 0.21. The relative viability was found to be 0.118 with VX-702 + Palbociclib (first compound 2 µM); 0.361 with VX-702 + Pictilisib (first compound 0.02 µM); 0.153 in the test with VX-702 + Pictilisib (first compound 0.2 µM); 0.295 with VX-702 + Pictilisib (first compound 0.6325 µM); 0.257 with VX-702 + Pictilisib (first compound 2 µM).

Turning to NCI-H1650, the relative viability is 0.332 with Dabrafenib + Palbociclib (first compound 0.003 µM); 0.382 with Dabrafenib + Palbociclib (first compound 0.009487 µM); 0.235 with Dabrafenib + Palbociclib (first compound 0.03 µM); 0.301 with Dabrafenib + Palbociclib (first compound 0.09487 µM); 0.358 in the test with Dabrafenib + Palbociclib (first compound 0.3 µM); 0.78 with VX-702 + Olaparib (first compound 0.02 µM). The relative viability turned out to be 0.813 with VX-702 + Olaparib (first compound 0.2 µM); 0.806 in the test with VX-702 + Olaparib (first compound 0.6325 µM); 1.16 in the test with VX-702 + Olaparib (first compound 2 µM); 0.325 with VX-702 + Palbociclib (first compound 0.02 µM); 0.35 in the test with VX-702 + Palbociclib (first compound 0.2 µM); 0.445 in the test with VX-702 + Palbociclib (first compound 0.6325 µM). Also, the relative viability with VX-702 + Palbociclib (first compound 2 µM) came out at 0.297; in the test with VX-702 + Pictilisib (first compound 0.02 µM), 0.641; in the test with VX-702 + Pictilisib (first compound 0.2 µM), 0.326; with VX-702 + Pictilisib (first compound 0.6325 µM), 0.596; with VX-702 + Pictilisib (first compound 2 µM), 0.586.

With NCI-H1993, the relative viability amounted to 0.672 in the test with Dabrafenib + Palbociclib (first compound 0.003 µM); 0.786 with Dabrafenib + Palbociclib (first compound 0.009487 µM); 0.746 with Dabrafenib + Palbociclib (first compound 0.03 µM); 0.664 with Dabrafenib + Palbociclib (first compound 0.09487 µM); 0.701 with Dabrafenib + Palbociclib (first compound 0.3 µM); 0.5 in the test with VX-702 + Olaparib (first compound 0.02 µM). The relative viability with VX-702 + Olaparib (first compound 0.2 µM) came out at 1.06; with VX-702 + Olaparib (first compound 0.6325 µM), 1.06; with VX-702 + Olaparib (first compound 2 µM) it was 1.05; with VX-702 + Palbociclib (first compound 0.02 µM), 0.655; with VX-702 + Palbociclib (first compound 0.2 µM), 0.696; with VX-702 + Palbociclib (first compound 0.6325 µM) it was 0.69. Moreover, the relative viability in the test with VX-702 + Palbociclib (first compound 2 µM) is 0.745; in the test with VX-702 + Pictilisib (first compound 0.02 µM) it was 0.871; with VX-702 + Pictilisib (first compound 0.2 µM) it was 0.808; in the test with VX-702 + Pictilisib (first compound 0.6325 µM) it was 0.757; with VX-702 + Pictilisib (first compound 2 µM), 0.834.

Take NCI-H522: the relative viability with Dabrafenib + Palbociclib (first compound 0.009487 µM) is 1.02; with Dabrafenib + Palbociclib (first compound 0.03 µM) it was 0.932; in the test with Dabrafenib + Palbociclib (first compound 0.09487 µM) it was 0.952; in the test with Dabrafenib + Palbociclib (first compound 0.3 µM), 1.08; with VX-702 + Olaparib (first compound 0.02 µM), 0.754; with VX-702 + Olaparib (first compound 0.2 µM) it was 0.678. In addition, the relative viability was found to be 0.667 with VX-702 + Olaparib (first compound 0.6325 µM); 0.619 in the test with VX-702 + Olaparib (first compound 2 µM); 1.12 with VX-702 + Palbociclib (first compound 0.02 µM); 0.988 with VX-702 + Palbociclib (first compound 0.2 µM); 0.83 in the test with VX-702 + Palbociclib (first compound 0.6325 µM); 1.08 with VX-702 + Palbociclib (first compound 2 µM).
